Assay results from US12134607B2, “Crystals of tetrahydronaphthyl urea derivative” (MOCHIDA PHARMACEUTICAL CO., LTD., priority 2017, dated 2024).
In brackets after ≈: the same amount, converted by molar mass. Where two headings read alike, the source gives them in different places.

Experiments:
Storage stability test = type: physicochemical; conditions: for Moisture absorption: during the storage period; for Chemical and physical stability over the test period: storage for 1 month, result in words
Description: For the stability test, approximately 20 mg of the test sample was stored at 25° C./60% RH or at 40° C./75% RH in open or closed condition for 1 month using a small environmental tester SH-641 (manufactured by Espec), and changes in purity and in crystalline form were observed.
For purity measurement, equipment of Waters ACQUITY UPLC H-Class (manufactured by Waters) and column of Waters ACQUITY BEH C18 (particle diameter […], size 2.1×50 mm) are used. For the mobile phase, 10 mmol/L ammonium bicarbonate buffer pH 9.0 and acetonitrile were used; and the test sample solution at 100 μg/mL in the mixture solvent of THF (tetrahydrofuran):10 mmol/L ammonium bicarbonate buffer (20:80) was prepared.
(Test Example 2) Storage Stability Test
The type I (Example 2), III (Example 3), V (Example 4) and VI (Example 5) crystals (each about 20 mg) of 1-((1R,2R)-2-hydroxy-4,4-dimethyl-1,2,3,4-tetrahydronaphthalen-1-yl)-3-(5-methyl-6-(2-methylpyrimidin-5-yl)-2-phenylpyridin-3-yl)urea obtained in the above Examples 2 to 5 were stored in glass bottles under the respective conditions described in Table 7. After completion of the storage period, the retrieved sample was confirmed on the purity by high performance liquid chromatography and on the crystal form by powder X-ray diffraction analysis as in the Examples.

[1] = Photostability test according to ICH Q1B; type: physicochemical
Description: (Test Example 3) Photostability Test
The type I (Example 2), III (Example 3), V (Example 4), and VI (Example 5) crystals (each about 20 mg) of 1-((1R,2R)-2-hydroxy-4,4-dimethyl-1,2,3,4-tetrahydronaphthalen-1-yl)-3-(5-methyl-6-(2-methylpyrimidin-5-yl)-2-phenylpyridin-3-yl)urea obtained in the above Examples 2 to 5 were placed in a transparent plastic container and covered, and were subjected to photostability test according to the ICH Q1B (Guidelines on Photostability Testing of New Active Substances and Medicinal Products) described in Table 8 (Here, the photostability test samples were stored at about 25° C. under separate lamps which respectively emits visible light and UV-A light so that the total light exposure should be 1.2 million lux hours and 200 W hours/m^2 or more, respectively. A 5-day study should be designated as “0.5 ICH” and a 10-day study as “1 ICH”). […] After completion of the test, the retrieved sample was confirmed on the purity by high performance liquid chromatography and on the crystal form by powder X-ray diffraction analysis as in the Examples.

[2] = Pharmacokinetic study, single oral dose in rats; type: in vivo
Description: (Pharmacology Experiment 5): Pharmacokinetic Study
Plasma sample obtained by centrifugation of blood (12000×g, for 5 minutes, at 4° C.) was measured to determine plasma concentration of the test compound using high performance liquid chromatography/mass spectrometry. Similarly, concentrations of standard solutions containing the test compound at known concentrations (0.001, 0.002, 0.005, 0.01, 0.02, 0.05, 0.1, 0.2, 0.5, 1, 2, and 5 μg/mL) were measured. And then, the plasma concentration (μg/mL) of the compound (1) was calculated from the prepared calibration curve to obtain the maximum plasma concentration (Cmax (μg/mL)) and the area under the plasma concentration-time curve (AUC (μg·hr/mL)). Measurement conditions can be appropriately adjusted by a person skilled in the art.

[3] = Determination of equilibrium solubility in phosphate buffer solution with pH 6.8; type: physicochemical; conditions: pH 6.8 phosphate buffer, mean value of three measurements
Text: (Test Example 1) Determination of Equilibrium Solubility (Determination of Solubility in Phosphate Buffer Solution with pH 6.8)
Each of the equilibrium solubilities (solubility in phosphate buffer solution with pH 6.8) of Type I (Example 2), III (Example 3), V (Example 4) and VI crystals (Example 5) of 1-((1R,2R)-2-hydroxy-4,4-dimethyl-1,2,3,4-tetrahydronaphthalen-1-yl)-3-(5-methyl-6-(2-methylpyrimidin-5-yl)-2-phenylpyridin-3-yl)urea obtained in the above (Example 2) to (Example 5) was determined as follows:
Water was added a weighed potassium dihydrogen phosphate of 2.7 g to make 100 mL volume to prepare 0.2 mol/L potassium dihydrogen phosphate solution. Water was added a weighed disodium hydrogen phosphate […] of 7.2 g to make 100 mL volume to prepare 0.2 mol/L disodium hydrogen phosphate solution. A pH 6.8 phosphate buffer solution was prepared by diluting a mixture of 0.2 mol/L potassium dihydrogen phosphate solution (14.8 mL) and 0.2 mol/L disodium hydrogen phosphate solution (10.0 mL) with water (173.6 mL).
Approximately 1 mg of the each crystal from (Example 2) to (Example 5) was weighed into a screw tube, and a pH 6.8 phosphate buffer solution (1 mL) was added. An isothermal shaker (M-BR-022UP) was used to incubate the sample at 37° C. and 1000 rpm for 24 hours. 100 μL solution were sampled at 1, 2, 6, and 24 hours after the start of incubation, and were filtered using a centrifuge (HITACHI, Himac cF 9RX, at 25° C., at 1500 rpm, for 30 seconds) with a filter (Millipore: Multiscreen, MSSLBPC10) so as to remove insoluble materials. A 20 μL of the filtrate was quantified, and diluted with a solution (180 μL, pH 9.0) of 20 vol % tetrahydrofuran and 80 vol % ammonium bicarbonate aqueous solution (10 mM). A 10 μL of the prepared solution was quantified, and diluted with a solution (190 μL, pH 9.0) of 20 vol % tetrahydrofuran and 80 vol % ammonium bicarbonate aqueous solution (10 mM). The prepared solution was analyzed by ultra performance liquid chromatography (UPLC) under the following measurement conditions, and the concentration of the compound in the solution was calculated based on a previously prepared calibration curve. Three times of measurements were made for each example compound, and the mean values and standard deviations of the three measurements are shown as a result in Table 6.
<UPLC measurement conditions> Equipment: ACQUITY UPLC H-Class (Waters) Detector: PDA (200-500 nm) Column: BEH C18 2.1×50 mm Measurement wavelength: 270 nm Column temperature: 40° C. Injection amount: 10 μL Mobile phase: • Solvent A, acetonitrile; • Solvent B, 10 mM ammonium bicarbonate aqueous solution (pH 9.0) Gradient conditions: […]

[4] = 25° C./60% RH, closed for 1 month
[5] = 25° C./60% RH, open for 1 month
[6] = 40° C./75% RH, closed for 1 month
[7] = 40° C./75% RH, open for 1 month
[8] = Shielded from light by aluminum foil, 0.5 ICH
[9] = Shielded from light by aluminum foil, 1 ICH
[10] = Shielded from light by aluminum foil, Before the test
[11] = male Crl:CD (SD) rats, oral single dose 600 mg/kg in 0.5 w/v % methylcellulose 400

| Structure (SMILES) | Chemical purity (%) (Storage stability test; [4]) | Crystalline form after completion of storage period (Storage stability test; [4]) | Chemical purity (%) (Storage stability test; [5]) | Crystalline form after completion of storage period (Storage stability test; [5]) | Chemical purity (%) (Storage stability test; [6]) | Crystalline form after completion of storage period (Storage stability test; [6]) | Chemical purity (%) (Storage stability test; [7]) | Crystalline form after completion of storage period (Storage stability test; [7]) | Chemical purity (%) (Storage stability test; Before the test) | Crystalline form after completion of storage period (Storage stability test; Before the test) | Chemical purity (%) ([1]; Exposure, 0.5 ICH (5-day)) | Crystalline form after completion of storage period ([1]; Exposure, 0.5 ICH (5-day)) | Chemical purity (%) ([1]; Exposure, 1 ICH (10-day)) | Crystalline form after completion of storage period ([1]; Exposure, 1 ICH (10-day)) | Chemical purity (%) ([1]; Exposure, Before the test) | Crystalline form after completion of storage period ([1]; Exposure, Before the test) | Chemical purity (%) [1, 8] [%] | Crystalline form after completion of storage period [1, 8] | Chemical purity (%) [1, 9] [%] | Crystalline form after completion of storage period [1, 9] | also measured |
| --- | --- | --- | --- | --- | --- | --- | --- | --- | --- | --- | --- | --- | --- | --- | --- | --- | --- | --- | --- | --- | --- |
| Cc1ncc(-c2nc(-c3ccccc3)c(NC(=O)N[C@@H]3c4ccccc4C(C)(C)C[C@H]3O)cc2C)cn1 [Example 2, 1-((1R,2R)-2-hydroxy-4,4-dimethyl-1,2,3,4-tetrahydronaphthalen-1-yl)-3-(5-methyl-6-(2-methylpyrimidin-5-yl)-2-phenylpyridin-3-yl)urea] | 99.8 | Type I crystal | 99.8 | Type I crystal | 99.8 | Type I crystal | 99.8 | Type I crystal | 99.8 | Type I crystal | 99.2 | Type I crystal | 98.9 | Type I crystal | 99.8 | Type I crystal | 99.8 | Type I crystal | 99.8 | Type I crystal | Moisture absorption (Storage stability test): no moisture absorption was observed; Chemical and physical stability over the test period (Storage stability test): chemically and physically stable; Chemical purity (%) [1, 10]: 99.8%; Crystalline form after completion of storage period [1, 10]: Type I crystal; Stability against light ([1]; result in words, listed as type I crystal): stable against light; AUC ([2]; male, Crl:CD (SD), rat, plasma, po, 600 mg/kg, oral single dose 600 mg/kg in 0.5 w/v % methylcellulose 400, read-out: Area Under Plasma Concentration (AUC)): 561 µg·h/mL; Cmax ([2]; male, Crl:CD (SD), rat, plasma, po, 600 mg/kg, oral single dose 600 mg/kg in 0.5 w/v % methylcellulose 400, read-out: Maximum Plasma Concentration (Cmax)): 29700 ng/mL; Solubility ([3]; 37° C.): 33.2 µg/mL (≈ 67.3 µM) |
| Cc1ncc(-c2nc(-c3ccccc3)c(NC(=O)N[C@@H]3c4ccccc4C(C)(C)C[C@H]3O)cc2C)cn1 [Example 4, 1-((1R,2R)-2-hydroxy-4,4-dimethyl-1,2,3,4-tetrahydronaphthalen-1-yl)-3-(5-methyl-6-(2-methylpyrimidin-5-yl)-2-phenylpyridin-3-yl)urea] | 99.8 | Type V crystal | 99.8 | Type V crystal | 99.8 | Type V crystal | 99.8 | Type V crystal | 99.8 | Type V crystal | 99.8 | Type V crystal | 99.8 | Type V crystal | 99.9 | Type V crystal | 99.9 | Type V crystal | 99.9 | Type V crystal | Moisture absorption (Storage stability test): no moisture absorption was observed; Chemical and physical stability over the test period (Storage stability test): chemically and physically stable; Chemical purity (%) [1, 10]: 99.9%; Crystalline form after completion of storage period [1, 10]: Type V crystal; Stability against light ([1]; result in words, listed as type V crystal): stable against light; Area Under Plasma Concentration (AUC) [2, 11]: 473 µg·h/mL; Maximum Plasma Concentration (Cmax) [2, 11]: 26900 ng/mL; Solubility ([3]; 37° C.): 60.1 µg/mL (≈ 122 µM) |
| Cc1ncc(-c2nc(-c3ccccc3)c(NC(=O)N[C@@H]3c4ccccc4C(C)(C)C[C@H]3O)cc2C)cn1 [Example 5, 1-((1R,2R)-2-hydroxy-4,4-dimethyl-1,2,3,4-tetrahydronaphthalen-1-yl)-3-(5-methyl-6-(2-methylpyrimidin-5-yl)-2-phenylpyridin-3-yl)urea] | 99.9 | Type VI crystal | 99.9 | Type VI crystal | 99.9 | Type VI crystal | 99.9 | Type VI crystal | 99.8 | Type VI crystal | 99.7 | Type I crystal | 99.5 | Type I crystal | 99.8 | Type I crystal | 99.8 | Type I crystal | 99.8 | Type I crystal | Crystal form change during storage (Storage stability test; storage (open system)): transferred to the type I crystal; Chemical purity (%) [1, 10]: 99.8%; Crystalline form after completion of storage period [1, 10]: Type VI crystal; Crystal form change during photostability tests ([1]; result in words): transferred to the type I crystal; Stability against light ([1]; result in words, listed as type VI crystal): unstable against light; Solubility ([3]; phosphate buffer solution pH 6.8, 37 °C, pH 6.8, aqueous buffer, thermodynamic from solid, read-out: Solubility): 41.1 µg/mL (≈ 83.3 µM) |
